Measured values published in ChEMBL document CHEMBL5120922, “Discovery, Optimization, and Evaluation of Potent and Selective PI3Kδ-γ Dual Inhibitors for the Treatment of B-cell Malignancies” (J Med Chem, 2022).
pIC50: −log10 of the molar value. The source made the active and inactive calls. The calls are words filed in the database; no cut-off is given here.

Key:
[1] = system: DOHH-2; assay: Antiproliferative activity against human DOHH-2 cells assessed as cell growth inhibition measured after 72 hrs by MTT assay; format: functional, cell-based; settings: DOHH-2, 72 h
[2] = Cmax in Sprague-Dawley rat at 5 mg/kg, iv measured upto 24 hrs by LC-MS/MS analysis; format: ADME, organism-based; set-up: time < 24 hrs, dose 5 mg/kg, route iv; settings: in vivo
[3] = Cmax in Sprague-Dawley rat at 2 mg/kg, iv measured upto 24 hrs by LC-MS/MS analysis; format: ADME, organism-based; set-up: time < 24 hrs, dose 2 mg/kg, route iv; settings: in vivo
[4] = Cmax in Sprague-Dawley rat at 10 mg/kg, po measured upto 24 hrs by LC-MS/MS analysis; format: ADME, organism-based; set-up: dose 10 mg/kg, time < 24 hrs, route po; settings: in vivo
[5] = Tmax in Sprague-Dawley rat at 5 mg/kg, iv measured upto 24 hrs by LC-MS/MS analysis; format: ADME, organism-based; settings: in vivo
[6] = AUC(0 to t) in Sprague-Dawley rat at 5 mg/kg, po measured upto 24 hrs by LC-MS/MS analysis; format: ADME, organism-based; set-up: dose 5 mg/kg, time < 24 hrs, route po; settings: in vivo
[7] = AUC(0 to t) in Sprague-Dawley rat at 5 mg/kg, iv measured upto 24 hrs by LC-MS/MS analysis; format: ADME, organism-based; set-up: time < 24 hrs, dose 5 mg/kg, route iv; settings: in vivo
[8] = Half life in Sprague-Dawley rat at 5 mg/kg, po measured upto 24 hrs by LC-MS/MS analysis; format: ADME, organism-based; settings: in vivo
[9] = Half life in Sprague-Dawley rat at 5 mg/kg, iv measured upto 24 hrs by LC-MS/MS analysis; format: ADME, organism-based; settings: in vivo
[10] = Half life in Sprague-Dawley rat at 10 mg/kg, po measured upto 24 hrs by LC-MS/MS analysis; format: ADME, organism-based; settings: in vivo
[11] = Half life in Sprague-Dawley rat at 2 mg/kg, iv measured upto 24 hrs by LC-MS/MS analysis; format: ADME, organism-based; settings: in vivo
[12] = Clearance in Sprague-Dawley rat at 5 mg/kg, po measured upto 24 hrs by LC-MS/MS analysis; format: ADME, organism-based; settings: in vivo
[13] = Clearance in Sprague-Dawley rat at 2 mg/kg, iv measured upto 24 hrs by LC-MS/MS analysis; format: ADME, organism-based; settings: in vivo
[14] = Volume of distribution at steady state in Sprague-Dawley rat at 5 mg/kg, iv measured upto 24 hrs by LC-MS/MS analysis; format: ADME, organism-based; settings: in vivo, read-out: Vdss
[15] = Volume of distribution at steady state in Sprague-Dawley rat at 2 mg/kg, iv measured upto 24 hrs by LC-MS/MS analysis; format: ADME, organism-based; settings: in vivo, read-out: Vdss
[16] = Oral bioavailability in Sprague-Dawley rat at 5 mg/kg measured upto 24 hrs by LC-MS/MS analysis; format: ADME, organism-based; settings: in vivo
[17] = Oral bioavailability in Sprague-Dawley rat at 10 mg/kg measured upto 24 hrs by LC-MS/MS analysis; format: ADME, organism-based; settings: in vivo
[18] = system: SU-DHL-6; assay: Induction of cell cycle arrest in human SU-DHL-6 cells assessed as accumulation of cells at G0/G1 phase at 0.5 uM incubated for 24 hrs in presence of ibrutinib by PI staining based FACScan flow cytometry analysis (reference value: 55.61 %); format: functional
[19] = system: SU-DHL-6; assay: Induction of cell cycle arrest in human SU-DHL-6 cells assessed as accumulation of cells at S phase at 0.5 uM incubated for 24 hrs in presence of ibrutinib by PI staining based flow cytometry analysis (reference value: 24.18 %); format: functional
[20] = system: SU-DHL-6; assay: Induction of cell cycle arrest in human SU-DHL-6 cells assessed as accumulation of cells at G2/M phase at 0.5 uM incubated for 24 hrs in presence of ibrutinib by PI staining based FACScan flow cytometry analysis (reference value: 20.21 %); format: functional
[21] = system: DOHH-2; assay: Induction of cell cycle arrest in human DOHH-2 cells assessed as accumulation of cells at G0/G1 phase at 0.5 uM incubated for 24 hrs by PI staining based flow cytometry analysis (reference value: 23.47 %); format: functional
[22] = system: DOHH-2; assay: Induction of cell cycle arrest in human DOHH-2 cells assessed as accumulation of cells at S phase at 0.5 uM incubated for 24 hrs by PI staining based FACScan flow cytometry analysis (reference value: 55.11 %); format: functional
[23] = system: DOHH-2; assay: Induction of cell cycle arrest in human DOHH-2 cells assessed as accumulation of cells at S phase at 0.5 uM incubated for 24 hrs in presence of ibrutinib by PI staining based flow cytometry analysis (reference value: 55.11 %); format: functional
[24] = system: DOHH-2; assay: Induction of cell cycle arrest in human DOHH-2 cells assessed as accumulation of cells at G2/M phase at 0.5 uM incubated for 24 hrs in presence of ibrutinib by PI staining based flow cytometry analysis (reference value: 21.42 %); format: functional
[25] = system: SU-DHL-6; assay: Induction of apoptosis in human SU-DHL-6 cells assessed as necrotic cells at 1.5 uM incubated for 48 hrs by annexin V-FITC and PI staining based flow cytometry analysis (reference value: 0.32%); format: functional
[26] = system: SU-DHL-6; assay: Induction of apoptosis in human SU-DHL-6 cells assessed as viable cells at 1.5 uM incubated for 48 hrs in presence of ibrutinib by annexin V-FITC and PI staining based flow cytometry analysis (reference value: 87.0 %); format: functional; settings: read-out: Activity
[27] = system: DOHH-2; assay: Induction of apoptosis in human DOHH-2 cells assessed as viable cells at 2 uM incubated for 48 hrs by annexin V-FITC and PI staining based flow cytometry analysis (reference value: 95.4 %); format: functional; settings: read-out: Activity
[28] = system: DOHH-2; assay: Induction of apoptosis in human DOHH-2 cells assessed as late apoptotic cells at 2 uM incubated for 48 hrs by annexin V-FITC and PI staining based flow cytometry analysis (reference value: 2.20 %); format: functional
[29] = system: DOHH-2; assay: Induction of apoptosis in human DOHH-2 cells assessed as early apoptotic cells at 2 uM incubated for 48 hrs in presence of ibrutinib by annexin V-FITC and PI staining based flow cytometry analysis (reference value: 2.09 %); format: functional
[30] = system: DOHH-2; assay: Induction of apoptosis in human DOHH-2 cells assessed as late apoptotic cells at 2 uM incubated for 48 hrs in presence of ibrutinib by annexin V-FITC and PI staining based flow cytometry analysis (reference value: 2.20 %); format: functional
[31] = organism: Homo sapiens; assay: Selectivity ratio of IC50 for N-terminal His6-tagged recombinant full length human PI3Kbeta expressed in baculovirus infected Sf21 insect cells to IC50 for N-terminal His6-tagged recombinant full length human PI3Kgamma expressed in baculovirus infected Sf21 insect cells
[32] = Selectivity ratio of IC50 for human 786-O cells over expressing PI3Kbeta to IC50 for human SU-DHL-6 cells; format: functional
[33] = system: SU-DHL-6; assay: Antitumor activity against human SU-DHL-6 cells xenografted in po dosed NOD/SCID mouse assessed as tumor volume suppression measured every 2 days; format: functional, organism-based; settings: time 2.0 day, DDE = dose-dependent effect
[34] = system: SU-DHL-6; assay: Antitumor activity against human SU-DHL-6 cells xenografted in NOD/SCID mouse assessed as reduction in tumor volume at 10 mg/kg, po measured every 2 days in presence of ibrutinib; format: functional, organism-based; settings: time 2.0 day
[35] = system: SU-DHL-6; assay: Antitumor activity against human SU-DHL-6 cells xenografted in NOD/SCID mouse assessed as reduction in tumor weight at 10 mg/kg, po measured every 2 days in presence of ibrutinib; format: functional, organism-based; settings: time 2.0 day
[36] = Toxicity in human SU-DHL-6 cells xenografted in NOD/SCID mouse at 10 mg/kg, po measured every 2 days in presence of ibrutinib; format: organism-based; settings: in vivo, 48 h, time 2 day

- Cmax [2]: 860 ng/mL
- Cmax [3]: 1520 ng/mL
- Cmax [4]: 785 ng/mL
- Tmax [5]: 4.8 min
- AUC(0-t) at 24 h [6]: 8610 ng·h/mL
- AUC(0-t) at 24 h [7]: 6810 ng·h/mL
- half-life [8]: 9.46 h
- half-life [9]: 2.79 h
- half-life [10]: 2.4 h
- half-life [11]: 0.73 h
- CL/F [12]: 13.2 mL/min/kg
- clearance [13]: 30.5 mL/min/kg
- Vd [14]: 2.86 L/kg
- Vd [15]: 1.66 L/kg
- bioavailability [16]: 126%
- bioavailability [17]: 57%
SMILES: C[C@H]1CC[C@@H](c2nc3cccc(Cl)c3c(=O)n2-c2cccnc2)N1c1nc(N)nc(N)c1C#N
- pIC50 [1]: 6.70
- Activity [18]: 79.73%
- Activity [19]: 15.65%
- Activity [20]: 4.62%
- Activity [21]: 36.44%
- Activity [22]: 43.53%
- Activity [23]: 32.92%
- Activity [24]: 20.03%
- Activity [25]: 0.18%
- viability at 1.5 µM [26]: 47.1%
- viability at 2 µM [27]: 60.6%
- Activity [28]: 17.6%
- Activity [29]: 48.9%
- Activity [30]: 25.8%
- Ratio IC50 [31]: 84
- Selectivity ratio [32]: 142
- Activity [33]: Dde
- Activity [34]: Active
- Activity [35]: Active
- Activity [36]: Non-Toxic
